Assay results from article PMC9313475, “Green Tea Catechins, (−)‐Catechin Gallate, and (−)‐Gallocatechin Gallate are Potent Inhibitors of ABA‐Induced Stomatal Closure” (Advanced Science, 2022).

Experiments:
GORK = target: T1, GORK (Arabidopsis thaliana, UniProt Q94A76); assay: two-electrode voltage clamp in Xenopus oocytes expressing the channel, […]; type: cell-based
T1 sequence (Q94A76 1-820): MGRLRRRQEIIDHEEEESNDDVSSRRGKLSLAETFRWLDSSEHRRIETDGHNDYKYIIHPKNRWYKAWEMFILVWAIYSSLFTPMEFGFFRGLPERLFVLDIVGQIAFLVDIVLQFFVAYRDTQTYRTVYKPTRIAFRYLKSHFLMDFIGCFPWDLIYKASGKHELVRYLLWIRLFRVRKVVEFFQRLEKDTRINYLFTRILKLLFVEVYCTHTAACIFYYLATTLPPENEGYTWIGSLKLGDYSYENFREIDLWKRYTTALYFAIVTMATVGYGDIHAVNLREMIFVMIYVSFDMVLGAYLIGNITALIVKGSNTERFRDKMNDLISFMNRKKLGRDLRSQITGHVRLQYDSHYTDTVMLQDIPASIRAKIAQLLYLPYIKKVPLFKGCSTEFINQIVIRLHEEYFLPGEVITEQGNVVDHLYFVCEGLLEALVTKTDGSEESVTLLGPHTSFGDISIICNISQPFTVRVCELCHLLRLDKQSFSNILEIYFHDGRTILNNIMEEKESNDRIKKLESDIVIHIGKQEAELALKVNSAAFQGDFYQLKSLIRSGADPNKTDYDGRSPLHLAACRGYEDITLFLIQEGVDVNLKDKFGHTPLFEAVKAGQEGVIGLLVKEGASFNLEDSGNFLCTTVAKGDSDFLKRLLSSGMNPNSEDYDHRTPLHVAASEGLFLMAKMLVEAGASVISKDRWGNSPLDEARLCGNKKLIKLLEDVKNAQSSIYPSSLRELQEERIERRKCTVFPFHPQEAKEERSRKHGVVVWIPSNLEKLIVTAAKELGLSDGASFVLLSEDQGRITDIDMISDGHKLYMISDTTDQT

KAT2 [1] = target: T2, KAT2 (Arabidopsis thaliana, UniProt Q38849); assay: as above; type: cell-based
KAT1 = KAT1 (Arabidopsis thaliana, UniProt Q39128); assay: as above; type: cell-based
KAT2 [2] = target: T2, KAT2; assay: cell-based; settings: read-out: % inhibition at 0.5 mM

T2 sequence (Q38849 whole entry): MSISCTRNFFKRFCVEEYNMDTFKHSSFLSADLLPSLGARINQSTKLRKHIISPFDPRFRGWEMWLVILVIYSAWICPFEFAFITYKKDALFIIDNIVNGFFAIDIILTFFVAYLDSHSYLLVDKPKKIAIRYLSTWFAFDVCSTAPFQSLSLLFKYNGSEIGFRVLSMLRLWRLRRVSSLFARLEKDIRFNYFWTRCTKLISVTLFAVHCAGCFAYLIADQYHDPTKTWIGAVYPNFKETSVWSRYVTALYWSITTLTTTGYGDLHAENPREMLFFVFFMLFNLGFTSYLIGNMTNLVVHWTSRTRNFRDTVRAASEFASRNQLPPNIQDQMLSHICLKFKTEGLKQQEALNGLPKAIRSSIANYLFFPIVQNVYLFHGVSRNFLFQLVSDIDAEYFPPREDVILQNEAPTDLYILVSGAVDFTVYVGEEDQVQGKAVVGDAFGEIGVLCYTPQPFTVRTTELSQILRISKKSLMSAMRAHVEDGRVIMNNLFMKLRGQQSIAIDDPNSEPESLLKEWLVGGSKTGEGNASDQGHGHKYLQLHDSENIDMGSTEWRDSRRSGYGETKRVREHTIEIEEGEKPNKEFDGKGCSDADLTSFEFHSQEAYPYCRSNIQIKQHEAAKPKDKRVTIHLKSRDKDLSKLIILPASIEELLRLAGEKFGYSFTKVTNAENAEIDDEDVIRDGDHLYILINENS
Sequence of KAT1 (Q39128 whole entry): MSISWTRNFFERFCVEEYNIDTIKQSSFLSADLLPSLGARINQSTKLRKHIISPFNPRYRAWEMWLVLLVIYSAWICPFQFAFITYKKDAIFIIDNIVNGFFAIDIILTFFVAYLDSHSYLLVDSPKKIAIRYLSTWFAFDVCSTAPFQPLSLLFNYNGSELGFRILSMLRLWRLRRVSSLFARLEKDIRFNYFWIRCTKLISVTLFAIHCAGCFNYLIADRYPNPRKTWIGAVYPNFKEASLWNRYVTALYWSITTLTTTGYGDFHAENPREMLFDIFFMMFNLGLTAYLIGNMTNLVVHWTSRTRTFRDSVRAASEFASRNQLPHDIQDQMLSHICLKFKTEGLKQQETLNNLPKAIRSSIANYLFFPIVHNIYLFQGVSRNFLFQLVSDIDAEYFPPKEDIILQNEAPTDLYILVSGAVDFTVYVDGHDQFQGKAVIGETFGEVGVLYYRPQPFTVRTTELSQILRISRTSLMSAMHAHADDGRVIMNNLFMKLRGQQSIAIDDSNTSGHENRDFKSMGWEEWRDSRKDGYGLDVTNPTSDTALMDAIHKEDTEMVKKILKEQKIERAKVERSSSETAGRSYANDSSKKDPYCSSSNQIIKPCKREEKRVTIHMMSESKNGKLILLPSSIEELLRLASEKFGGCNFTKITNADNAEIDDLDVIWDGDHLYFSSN

Structure (SMILES)	two-electrode voltage clamp in Xenopus oocytes expressing the channel, 500 μM (GORK)	two-electrode voltage clamp in Xenopus oocytes expressing the channel, 500 μM (KAT2 [1])	two-electrode voltage clamp in Xenopus oocytes expressing the channel, 500 μM (KAT1)	inhibition at 500 µM (KAT2 [2])
O=C(O[C@@H]1Cc2c(O)cc(O)cc2O[C@H]1c1cc(O)c(O)c(O)c1)c1cc(O)c(O)c(O)c1 [GCG, (−)-gallocatechin gallate]	GORK was strongly inhibited by CG and GCG, whereas AKT1 and AKT2 were less sensitive to CG and GCG.	Both CG and GCG inhibited KAT1 and KAT2 (Figure 3A,B).	Both CG and GCG inhibited KAT1 and KAT2 (Figure 3A,B).	
O=C(O[C@@H]1Cc2c(O)cc(O)cc2O[C@H]1c1ccc(O)c(O)c1)c1cc(O)c(O)c(O)c1 [CG, (−)-catechin gallate]	GORK was strongly inhibited by CG and GCG, whereas AKT1 and AKT2 were less sensitive to CG and GCG.	Both CG and GCG inhibited KAT1 and KAT2 (Figure 3A,B).	Both CG and GCG inhibited KAT1 and KAT2 (Figure 3A,B).	
CC[N+](CC)(CC)CC [TEA, tetraethylammonium]				14%
